From ChEMBL document CHEMBL5724796, “Tm Shift (DSF) assay results for EUbOPEN Chemogenomics Library” (2024) come the findings set out here.

Where “and” joins values, the source holds several entries; their conditions need not be identical. Equal values may be shown once.

The target in one experiment is T1, Peregrin (Homo sapiens) (UniProt P55201).
T1 sequence (whole entry): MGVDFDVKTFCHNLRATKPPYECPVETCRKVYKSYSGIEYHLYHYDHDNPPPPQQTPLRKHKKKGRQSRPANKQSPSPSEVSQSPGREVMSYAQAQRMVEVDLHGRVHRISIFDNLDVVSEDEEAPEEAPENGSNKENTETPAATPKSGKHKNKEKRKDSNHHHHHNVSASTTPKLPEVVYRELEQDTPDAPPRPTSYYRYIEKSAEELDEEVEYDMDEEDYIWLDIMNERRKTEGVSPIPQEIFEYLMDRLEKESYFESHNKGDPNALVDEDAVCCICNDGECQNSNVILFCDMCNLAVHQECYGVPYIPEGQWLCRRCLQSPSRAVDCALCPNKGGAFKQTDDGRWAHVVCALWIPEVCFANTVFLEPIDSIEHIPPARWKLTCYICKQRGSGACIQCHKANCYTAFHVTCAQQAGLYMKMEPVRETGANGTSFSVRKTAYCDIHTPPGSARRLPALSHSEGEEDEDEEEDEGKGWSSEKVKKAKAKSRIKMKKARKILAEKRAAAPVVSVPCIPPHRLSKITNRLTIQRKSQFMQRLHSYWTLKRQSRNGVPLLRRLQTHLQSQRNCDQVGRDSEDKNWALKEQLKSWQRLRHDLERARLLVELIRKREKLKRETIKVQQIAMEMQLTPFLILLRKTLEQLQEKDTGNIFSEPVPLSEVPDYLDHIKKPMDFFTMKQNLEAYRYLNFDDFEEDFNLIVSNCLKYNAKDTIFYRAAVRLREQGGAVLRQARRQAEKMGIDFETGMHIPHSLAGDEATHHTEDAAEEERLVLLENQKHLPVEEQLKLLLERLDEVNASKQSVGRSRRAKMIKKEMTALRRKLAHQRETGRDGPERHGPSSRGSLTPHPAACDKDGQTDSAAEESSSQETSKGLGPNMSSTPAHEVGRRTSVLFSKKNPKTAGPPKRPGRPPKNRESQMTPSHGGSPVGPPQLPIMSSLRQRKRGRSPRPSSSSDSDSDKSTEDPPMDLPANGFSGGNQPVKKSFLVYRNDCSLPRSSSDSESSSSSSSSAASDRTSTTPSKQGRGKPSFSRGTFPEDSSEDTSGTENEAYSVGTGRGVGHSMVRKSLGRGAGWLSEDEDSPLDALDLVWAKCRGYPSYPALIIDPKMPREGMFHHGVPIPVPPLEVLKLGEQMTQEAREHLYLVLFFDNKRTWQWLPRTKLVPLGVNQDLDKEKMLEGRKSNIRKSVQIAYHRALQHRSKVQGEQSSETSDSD
To be noted: Compound concentration 20.0 uM.

For experiment [1], the target named is Fibroblast growth factor receptor 2 (Homo sapiens) (UniProt P21802). To be noted: Compound concentration 20.0 uM.
Sequence of Fibroblast growth factor receptor 2 (Homo sapiens) (P21802 22-821 limits assumed): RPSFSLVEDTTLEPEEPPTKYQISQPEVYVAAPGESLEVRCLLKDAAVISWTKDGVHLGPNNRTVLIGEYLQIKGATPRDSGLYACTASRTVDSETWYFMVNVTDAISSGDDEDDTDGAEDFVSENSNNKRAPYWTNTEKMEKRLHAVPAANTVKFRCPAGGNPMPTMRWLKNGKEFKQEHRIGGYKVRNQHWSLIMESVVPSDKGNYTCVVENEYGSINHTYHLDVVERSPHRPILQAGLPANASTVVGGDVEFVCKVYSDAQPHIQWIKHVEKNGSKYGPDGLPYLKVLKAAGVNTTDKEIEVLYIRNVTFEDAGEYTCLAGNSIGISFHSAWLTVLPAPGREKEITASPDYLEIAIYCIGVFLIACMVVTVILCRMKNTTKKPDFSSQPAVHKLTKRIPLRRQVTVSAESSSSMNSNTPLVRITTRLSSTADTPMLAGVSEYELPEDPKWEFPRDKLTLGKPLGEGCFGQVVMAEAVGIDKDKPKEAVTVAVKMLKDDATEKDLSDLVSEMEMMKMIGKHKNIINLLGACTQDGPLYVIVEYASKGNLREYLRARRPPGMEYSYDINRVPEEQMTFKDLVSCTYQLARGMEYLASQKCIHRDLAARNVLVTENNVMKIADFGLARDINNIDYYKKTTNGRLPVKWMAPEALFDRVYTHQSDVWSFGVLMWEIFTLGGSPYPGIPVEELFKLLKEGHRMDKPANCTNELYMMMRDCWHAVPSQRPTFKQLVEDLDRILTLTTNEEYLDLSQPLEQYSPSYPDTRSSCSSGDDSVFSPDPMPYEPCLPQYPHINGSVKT
Description: Thermal Shift Assay. Domain: start/stop: T457-E768

For the compound `Cc1ccsc1C(=CCCN1CCC[C@@H](C(=O)O)C1)c1sccc1C`, the results for the ΔTm (at Peregrin (Homo sapiens); in experiment [1]) were 0.44 °C and 0.37 °C, respectively.

On to `COc1cccc(Nc2c(C(N)=O)cnc3c(C)cc(S(=O)(=O)c4cccc(C(=O)N(C)C)c4)cc23)c1`, for which the results for the thermal shift (ΔTm) (at Peregrin (Homo sapiens); in experiment [1]) were -1.59 °C and -0.11 °C, respectively.

For the compound `CCCCN(Cc1ccc(C(=O)NO)cc1)C(=O)Nc1ccccc1`, the figures for the ΔTm (at Peregrin (Homo sapiens); in experiment [1]) were -0.92 °C and -0.44 °C, respectively.

As to `Cn1cc(NC(=O)c2cc(F)cc(F)c2)c(C(=O)NC2CCNCC2)n1`, the results for the ΔTm (on Peregrin (Homo sapiens); in experiment [1]) were -1.44 °C and 0.66 °C, respectively.

Consider `COc1nc(Nc2cc(S(C)(=O)=O)ccc2N[C@@H](c2cccc3c2OC(F)(F)O3)c2ncccc2Cl)nc(N2CCNCC2)n1`, for which the ΔTm at Peregrin (Homo sapiens) is 0 °C; in experiment [1], -8.88 °C.

With `Cc1ncsc1-c1ccc(CNC(=O)[C@@H]2C[C@@H](O)CN2C(=O)[C@@H](NC(=O)COCC(C)(COCCOCCOCCNC(=O)C[C@@H]2N=C(c3ccc(Cl)cc3)c3c(sc(C)c3C)-n3c(C)nnc32)COCCOCCOCCNC(=O)C[C@@H]2N=C(c3ccc(Cl)cc3)c3c(sc(C)c3C)-n3c(C)nnc32)C(C)(C)C)cc1`, the ΔTm was -5.29 °C on Peregrin (Homo sapiens) and -1.18 °C in experiment [1].

`N#Cc1ccc([C@H]2CCCC[C@H]2O)cc1C(F)(F)F`: the values for the ΔTm (at Peregrin (Homo sapiens); in experiment [1]) were -0.66 °C and -0.09 °C, respectively.

Take `CCn1c(=O)c(C)cn(Cc2nnc(-c3ccc(F)c(O)c3F)s2)c1=O`: the figures for the ΔTm (at Peregrin (Homo sapiens); in experiment [1]) were -0.64 °C and 0.53 °C, respectively.

As for `O=C(NCCCOc1ccc2[nH]c(=O)ccc2c1)N(C1CC1)[C@@H]1CCCC[C@H]1O`, the ΔTm turned out to be 1.1 °C at Peregrin (Homo sapiens) and 0.24 °C in experiment [1].

Take `O=C(NO)c1cnc(NC2(c3ccccc3)CC2)nc1`: the ΔTm at Peregrin (Homo sapiens) was -1.33 °C; in experiment [1], 0.35 °C.

For `CC(C)n1nc(-c2cc3cc(O)ccc3[nH]2)c2c(N)ncnc21`, the results for the ΔTm (on Peregrin (Homo sapiens); in experiment [1]) were 1.52 °C and 4.67 °C, respectively.

`C=CCc1cccc(CNc2nc3ccccc3n2CCC)c1O`: the ΔTm was 4.18 °C on Peregrin (Homo sapiens) and 0.14 °C in experiment [1].

As to `O=C(C[C@@H](C(F)F)n1ccc(F)n1)N1CCC(O)(Cn2cnc3c(cnn3-c3ccc(F)cc3)c2=O)CC1`, the ΔTm stood at 0.9 °C at Peregrin (Homo sapiens) and 0.2 °C in experiment [1].

Consider `CC(C)c1c(-c2cnn(C(C)(C)C)c2)[nH]c2c(C#N)cnn2c1=O`, for which the ΔTm was 0.8 °C on Peregrin (Homo sapiens) and 0.36 °C in experiment [1].

Regarding `CCCCCCCCCCCCCCCCNNC(=O)c1cccs1`, the ΔTm on Peregrin (Homo sapiens) is -0.84 °C; in experiment [1], 0.53 °C.

As to `CCc1c(C)nc(-c2ccc(Cl)s2)nc1Nc1ccc(CC(=O)O)cc1`, the ΔTm on Peregrin (Homo sapiens) was 1.24 °C; in experiment [1] it was -0.19 °C.

For the compound `CCC1CCCCN1C(=O)n1ncc(C(O)(c2ccccc2)c2ccccc2)n1` (configuration not stated), the ΔTm is -0.98 °C at Peregrin (Homo sapiens) and -0.25 °C in experiment [1].

Turning to `FC(F)(F)Oc1ccc(Oc2ccnc(N3CCC(NC(=S)Nc4cccnc4)CC3)c2Cl)c(Cl)c1`, the ΔTm on Peregrin (Homo sapiens) was 0.92 °C and 3.5 °C; in experiment [1], -3.46 °C and 0.73 °C.

As to `Cc1c(CN2CCC(Nc3ncnc4sc(CC(F)(F)F)cc34)CC2)ccc2c1cc(C#N)n2Cc1cn[nH]c1`, the shift in melting temperature (ΔTm) at Peregrin (Homo sapiens) is 2.02 °C; in experiment [1], -1.27 °C.

Consider `NC(=O)c1cccc(NC(=O)CCC(=O)NCCc2cn(CCNS(=O)(=O)c3cccc(C(=O)O)c3)nn2)c1`, for which the ΔTm is -1.38 °C on Peregrin (Homo sapiens) and -1.91 °C in experiment [1].

Take `COc1cc(C(=O)NCC2(N(C)C)CCCC2)cc(OC)c1OCc1ccccc1`: the figures for the ΔTm (on Peregrin (Homo sapiens); in experiment [1]) were 2.2 °C and 0.12 °C, respectively.

Consider `COc1ccc(C(CN(C)C)C2(O)CCCCC2)cc1` (configuration not stated), for which the ΔTm was -0.6 °C at Peregrin (Homo sapiens) and 0.29 °C in experiment [1].

Consider `CCc1c(-c2ccccc2)c(-c2ccccc2)nn1-c1ccccc1-c1cccc(OCC(=O)O)c1`, for which the ΔTm on Peregrin (Homo sapiens) is -3.01 °C; in experiment [1] it was -1.61 °C.

For the compound `O=C(Nc1c[nH]nc1C(=O)NC1CCNCC1)c1cc(F)cc(F)c1`, the ΔTm on Peregrin (Homo sapiens) was -3.15 °C; in experiment [1] it was 0.46 °C.

Take `CNCCCN1c2ccccc2CCc2ccccc21`: the ΔTm was 1.05 °C on Peregrin (Homo sapiens) and -0.25 °C in experiment [1].

Turning to `Cc1cc(-n2cccc2)c(S(C)(=O)=O)cc1C(=O)N=C(N)N`, the ΔTm was 2.16 °C at Peregrin (Homo sapiens) and -0.71 °C in experiment [1].

What is called ΔTm is the shift of the melting midpoint relative to a reference.
